Data taken from publication PMC8197871, “Biochemical and Initial Structural Characterization of the Monocot Chimeric Jacalin OsJAC1” (International Journal of Molecular Sciences, 2021).
Values joined by “and” are separate entries in the source; they are usually repeats but may differ in a detail not shown here. Identical values can stand only once. Values belong to the molecule of their own block, whether it stands above or below them.

Experiments:
DIR domain of OsJAC1 [1] = molecular target: T1, DIR domain of OsJAC1 (Oryza sativa, UniProt Q306J3, T49I); assay: nano differential scanning fluorimetry; near-UV CD; assay type: binding; settings: 50 mM sugar, 4 mM DTT, 50 mM KPi pH 7.4; CD with 1 mM sugar
T1 construct: gene JAC1; isolated dirigent domain SKLQITPCGM...FCPLLKGS; Thr to Ile point mutation (NDKKIGLG); N-terminal His6 tag and thrombin site kept; E. coli BL21(DE3), pET15b(+); dimer/tetramer by SEC
T1 sequence (Q306J3 5-159 T49I): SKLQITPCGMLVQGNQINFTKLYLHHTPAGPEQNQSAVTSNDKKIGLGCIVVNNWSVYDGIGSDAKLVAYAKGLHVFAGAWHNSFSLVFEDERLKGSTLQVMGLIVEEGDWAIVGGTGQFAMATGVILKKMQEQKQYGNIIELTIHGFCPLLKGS

OsJAC1 [2] = molecular target: T2, OsJAC1 (Oryza sativa, UniProt Q306J3); assay: nano differential scanning fluorimetry; assay type: binding; settings: 50 mM sugar, 4 mM DTT, 50 mM KPi pH 7.4, TM2 = DIR domain transition
T2 construct: gene JAC1; full length, DIR + JRL domains; N-terminal His6 tag and thrombin site kept; E. coli BL21(DE3), pColdIV
T2 sequence (Q306J3 1-306): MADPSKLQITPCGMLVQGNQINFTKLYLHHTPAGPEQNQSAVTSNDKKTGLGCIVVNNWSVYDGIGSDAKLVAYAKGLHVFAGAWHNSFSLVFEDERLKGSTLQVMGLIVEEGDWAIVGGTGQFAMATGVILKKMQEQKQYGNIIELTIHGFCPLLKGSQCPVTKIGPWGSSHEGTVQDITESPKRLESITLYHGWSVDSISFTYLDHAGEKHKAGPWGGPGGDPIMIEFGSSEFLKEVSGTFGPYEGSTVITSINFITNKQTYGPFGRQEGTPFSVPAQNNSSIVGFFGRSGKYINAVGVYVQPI

DIR domain of OsJAC1 [3] = molecular target: T1, DIR domain of OsJAC1; assay: nano differential scanning fluorimetry; assay type: binding; settings: 50 mM sugar, 4 mM DTT, 50 mM KPi pH 7.4
JRL domain of OsJAC1 = molecular target: T3, JRL domain of OsJAC1 (Oryza sativa, UniProt Q306J3); assay: nano differential scanning fluorimetry; assay type: binding; settings: 50 mM sugar, 4 mM DTT, 50 mM KPi pH 7.4; 1:1 mixture with DIR domain
T3 construct: gene JAC1; isolated jacalin-related lectin domain QCPVTKIGPWGSSHEG...INAVGVYVQPI; N-terminal His6 tag and thrombin site kept; E. coli BL21(DE3), pET15b(+); thermal shifts measured in 1:1 mixture with the isolated DIR domain
T3 sequence (Q306J3 160-306): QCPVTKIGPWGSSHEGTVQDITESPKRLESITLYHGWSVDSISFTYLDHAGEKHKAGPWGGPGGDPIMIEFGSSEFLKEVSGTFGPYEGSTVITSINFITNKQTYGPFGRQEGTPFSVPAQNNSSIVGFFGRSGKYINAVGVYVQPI

OsJAC1 [4] = molecular target: T2, OsJAC1; assay: nano differential scanning fluorimetry; assay type: binding; settings: 50 mM sugar, 4 mM DTT, 50 mM KPi pH 7.4; TM1 = JRL domain transition
[5] = molecular target: DIR (dirigent) domain protein of OsJAC1, His6-tagged (Oryza sativa); assay: SEC; HiLoad 16/600 Superdex 200 pg; 50 mM KPi pH 7.4, 300 mM NaCl; 1 mL of 10 mg/mL protein injected, 1 mL/min; apparent masses from calibration proteins
[6] = molecular target: the molecule itself; assay: dynamic light scattering; OsJAC1 1.1 mg/mL in 15 mM TRIS-HCl pH 7.4, alone or with 150 mM CaCl2, 50 mM lactose, 150 mM MgSO4 or 4 mM DTT; apparent molecular masses

Molecule: OC[C@H]1O[C@@H](O[C@@H]2[C@H](O)[C@@H](O)C(O)O[C@@H]2CO)[C@H](O)[C@@H](O)[C@H]1O (some centres unmarked) [galactobiose]
dTM2 (DIR domain of OsJAC1 [1]): galactobiose (DIR domain) and laminaribiose (JRL domain), caused major shifts in the CD spectra

dTM2 (OsJAC1 [2]; printed as up to): ~ 2 K | dTM2 (DIR domain of OsJAC1 [3]; printed as up to): ~ 3 K
Molecule: OC[C@H]1OC(O)[C@H](O)[C@@H](O)[C@H]1O (some centres unmarked) [galactose]

dTM1 (JRL domain of OsJAC1): 1 K | dTM1 (OsJAC1 [4]): 1 K
Molecule: OC[C@H]1OC(O)[C@H](O)[C@@H](O)[C@@H]1O (some centres unmarked) [glucose]

Molecule: OC[C@H]1O[C@@H](O[C@H]2[C@H](O)[C@@H](O)C(O)O[C@@H]2CO)[C@H](O)[C@@H](O)[C@H]1O (some centres unmarked) [lactose]
dTM2 (OsJAC1 [2]): (e.g., galactose and lactose) had a positive impact on TM2 of the DIR domain | dTM2 (DIR domain of OsJAC1 [3]): (e.g., galactose and lactose) had a positive impact on TM2 of the DIR domain

dTM1 (JRL domain of OsJAC1): 1 K | dTM1 (OsJAC1 [4]): 1 K
Molecule: OC[C@H]1OC(O)[C@@H](O)[C@@H](O)[C@@H]1O (some centres unmarked) [mannose]

stoichiometry N [5]: 2 and 4
Molecule: DIR (dirigent) domain protein of OsJAC1, His6-tagged (domain or fragment)

B1: monocot chimeric jacalin OsJAC1 from Oryza sativa, full-length protein, His6-tagged (natural protein)
chain: T2 sequence (Q306J3 1-306)
notes: OsJAC1 of rice (Oryza sativa), full-length protein; numbers count on: the His6-tagged construct as printed (23 tag and linker residues before M24); no cleavage of the tag is described; also called full-length OsJAC1; chimeric lectin OsJAC1; source: E. coli BL21(DE3), purified (IMAC on Ni-NTA, SEC); not shown: His6, N-terminal, kept
binding result [6]: binds
